This note sets out measurements from ChEMBL document CHEMBL1156284, “Tetrahydroindolizinone NK1 antagonists” (Bioorg Med Chem Lett, 2010).

pIC50: −log10 of the molar value.

For data set [1], the target named is T1, Substance-P receptor (Homo sapiens, UniProt P25103). The experiment in a line: Displacement of [125I]substance P from human NK1 receptor expressed in CHO cells in presence of 50% human serum. The data set is classed as cell-based.
The nature of data set [2]: Oral bioavailability in rat. The data set is classed as ADME, organism-based. The following applies: in vivo.
Data set [3] deals with T1, Substance-P receptor. As to the kind of experiment: Antagonist activity at human NK1 receptor assessed as substance P-stimulated inositol phosphate generation at 100 nM. In kind it is functional.
A further data set deals with Cytochrome P450 2D6 (Homo sapiens, UniProt P10635). As to the kind of experiment: Inhibition of CYP2D6. The data set is classed as ADME.
For data set [4], the system named is Gerbillinae. The experiment in a line: (§1) Toxicity in iv dosed gerbil assessed as inhibition of GR-73632-induced foot tapping after 1 hr. Particulars: in vivo. The data set is classed as organism-based.
Data set [5] is described as follows: Half life in dog. The data set is classed as ADME, organism-based, Canis lupus familiaris. Particulars: in vivo.
Data set [6] concerns the target T2, Nuclear receptor subfamily 1 group I member 2 (Homo sapiens, UniProt O75469).
T2 sequence (O75469 whole entry): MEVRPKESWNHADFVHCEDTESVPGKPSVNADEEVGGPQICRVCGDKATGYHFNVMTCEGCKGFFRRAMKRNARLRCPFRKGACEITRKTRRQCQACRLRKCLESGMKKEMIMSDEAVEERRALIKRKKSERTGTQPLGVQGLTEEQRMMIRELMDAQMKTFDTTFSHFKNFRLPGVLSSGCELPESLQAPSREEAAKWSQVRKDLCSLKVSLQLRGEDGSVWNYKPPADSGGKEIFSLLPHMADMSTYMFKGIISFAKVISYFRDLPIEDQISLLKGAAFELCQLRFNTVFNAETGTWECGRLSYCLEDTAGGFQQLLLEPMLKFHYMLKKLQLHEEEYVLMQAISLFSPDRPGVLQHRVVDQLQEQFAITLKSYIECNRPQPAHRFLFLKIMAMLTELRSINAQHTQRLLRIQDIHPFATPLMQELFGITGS
As to the kind of experiment: Induction of human PXR.

For data set [7], the target named is T1, Substance-P receptor. As to the kind of experiment: Displacement of [125I]substance P from human NK1 receptor expressed in CHO cells. In kind it is cell-based. Background: Displacement assays read how much labelled ligand stays bound in the presence of the test substance.
The subject of data set [8] is Gerbillinae. The experiment in a line: Toxicity in iv dosed gerbil assessed as inhibition of GR-73632-induced foot tapping after 24 hr. The data set is classed as organism-based. The following applies: in vivo.
For the next data set, the species on record is Rattus norvegicus. The experiment in a line: Clearance in rat plasma. Particulars: in vivo. In kind it is ADME, organism-based.
The next data set deals with Cytochrome P450 2C9 (Homo sapiens, UniProt P11712). The experiment in a line: Inhibition of CYP2C9. The data set is classed as ADME.
A short description of data set [9]: Volume of distribution in dog. The data set is classed as ADME, organism-based, Canis lupus familiaris. Particulars: in vivo.
Data set [10] is described as follows: Volume of distribution in rat. Particulars: in vivo. The data set is classed as ADME, organism-based.
Data set [11] in a line: Half life in rat. The data set is classed as ADME, organism-based. The following applies: in vivo.
Data set [12] relates to Gerbillinae. The experiment in a line: Toxicity in iv dosed gerbil assessed as inhibition of GR-73632-induced foot tapping after 24 hrs. In kind it is organism-based. Particulars: in vivo.
Data set [13] relates to Gerbillinae. The experiment in a line: Toxicity in iv dosed gerbil assessed as inhibition of GR-73632-induced foot tapping at 3 mg/kg, iv after 24 hrs. Details: dose 3 mg/kg, route intravenous. The data set is classed as organism-based.
Data set [14] in a line: Oral bioavailability in dog. The data set is classed as ADME, organism-based, Canis lupus familiaris. The following applies: in vivo.
Data set [15] concerns Gerbillinae. The description is as §1. Particulars: in vivo. The data set is classed as organism-based. This is another data set of the same source.
The target in the next data set is Cytochrome P450 3A4 (Homo sapiens, UniProt P08684). As to the kind of experiment: Inhibition of CYP3A4. In kind it is ADME.
Chain of Cytochrome P450 3A4 (P08684 whole entry): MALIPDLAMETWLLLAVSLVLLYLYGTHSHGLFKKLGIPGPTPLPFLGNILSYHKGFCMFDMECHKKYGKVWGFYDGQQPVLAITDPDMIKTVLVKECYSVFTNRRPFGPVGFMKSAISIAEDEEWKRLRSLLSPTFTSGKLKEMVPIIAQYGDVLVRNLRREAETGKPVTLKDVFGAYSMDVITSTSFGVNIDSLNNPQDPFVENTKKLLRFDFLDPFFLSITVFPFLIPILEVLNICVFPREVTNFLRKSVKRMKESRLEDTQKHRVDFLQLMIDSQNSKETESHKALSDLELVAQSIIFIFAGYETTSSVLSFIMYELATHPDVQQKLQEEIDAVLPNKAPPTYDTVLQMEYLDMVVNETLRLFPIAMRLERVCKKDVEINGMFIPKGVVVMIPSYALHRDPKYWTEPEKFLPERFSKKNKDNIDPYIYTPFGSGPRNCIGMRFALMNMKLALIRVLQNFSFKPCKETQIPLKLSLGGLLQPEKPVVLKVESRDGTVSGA

T1 sequence (P25103 whole entry): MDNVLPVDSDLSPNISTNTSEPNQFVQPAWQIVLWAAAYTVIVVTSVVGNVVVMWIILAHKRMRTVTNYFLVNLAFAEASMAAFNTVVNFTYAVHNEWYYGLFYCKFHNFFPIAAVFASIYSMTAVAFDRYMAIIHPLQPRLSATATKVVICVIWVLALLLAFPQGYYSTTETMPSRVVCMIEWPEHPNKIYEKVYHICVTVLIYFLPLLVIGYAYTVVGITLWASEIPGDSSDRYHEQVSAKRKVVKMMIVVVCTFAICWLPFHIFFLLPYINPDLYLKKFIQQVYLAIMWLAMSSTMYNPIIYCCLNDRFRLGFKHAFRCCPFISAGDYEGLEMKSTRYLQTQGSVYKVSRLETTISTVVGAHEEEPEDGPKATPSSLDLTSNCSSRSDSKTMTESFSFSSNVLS
Chain of Cytochrome P450 2C9 (P11712 whole entry): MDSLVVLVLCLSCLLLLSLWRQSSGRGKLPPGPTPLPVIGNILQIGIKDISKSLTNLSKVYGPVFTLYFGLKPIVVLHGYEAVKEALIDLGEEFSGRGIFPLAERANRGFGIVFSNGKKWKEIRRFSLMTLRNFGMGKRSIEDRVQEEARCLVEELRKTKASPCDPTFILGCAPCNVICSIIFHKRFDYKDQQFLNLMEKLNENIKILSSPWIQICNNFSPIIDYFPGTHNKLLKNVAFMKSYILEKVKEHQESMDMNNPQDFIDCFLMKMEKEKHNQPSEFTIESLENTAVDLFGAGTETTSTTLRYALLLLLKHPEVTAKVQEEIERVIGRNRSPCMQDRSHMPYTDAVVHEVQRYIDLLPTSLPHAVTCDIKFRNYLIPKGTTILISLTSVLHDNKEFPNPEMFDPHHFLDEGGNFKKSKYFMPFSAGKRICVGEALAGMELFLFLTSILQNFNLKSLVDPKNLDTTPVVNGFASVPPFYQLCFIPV
Chain of Cytochrome P450 2D6 (P10635 whole entry): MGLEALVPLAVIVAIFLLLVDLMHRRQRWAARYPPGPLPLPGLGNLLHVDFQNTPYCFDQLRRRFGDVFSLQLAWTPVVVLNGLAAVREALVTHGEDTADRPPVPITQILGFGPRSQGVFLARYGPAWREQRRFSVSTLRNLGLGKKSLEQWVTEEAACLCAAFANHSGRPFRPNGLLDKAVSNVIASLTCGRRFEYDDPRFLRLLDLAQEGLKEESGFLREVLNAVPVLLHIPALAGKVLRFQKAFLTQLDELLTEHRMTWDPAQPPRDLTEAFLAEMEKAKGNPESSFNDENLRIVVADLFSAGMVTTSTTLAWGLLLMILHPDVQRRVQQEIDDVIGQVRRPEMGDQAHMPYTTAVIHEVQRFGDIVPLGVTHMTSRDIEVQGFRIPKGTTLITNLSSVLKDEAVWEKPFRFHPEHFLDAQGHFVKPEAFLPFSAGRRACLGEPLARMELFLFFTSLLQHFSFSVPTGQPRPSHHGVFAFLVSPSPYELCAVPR

In the case of `C[C@@H](O[C@H]1CN2C(=O)C=C(C3=CCN(C(C)(C)C)CC3)CC2[C@@H]1c1ccc(F)cc1)c1cc(C(F)(F)F)cc(C(F)(F)F)c1` (some centres undefined), the pIC50 (in general, the negative decadic logarithm of the IC50, by convention in mol/L) at Substance-P receptor [1] was 8.72; against Cytochrome P450 2D6, 4.45; in data set [6], less than 4.52; at Substance-P receptor [7], 9.74; at Cytochrome P450 2C9 it was 4.44; against Cytochrome P450 3A4 it was less than 4.30. Moreover, the bioavailability (commonly dose-corrected exposure relative to a reference, in per cent) was 5.3% in data set [2] and 44% in data set [14]. Moreover, at Substance-P receptor [3], the IP is 2%. For the same compound, the ID50 in the data set on Gerbillinae [4] is 0.05 mg/kg; in the data set on Gerbillinae [8], 0.49 mg/kg; in the data set with Gerbillinae [12], 0.49 mg/kg; in the data set with Gerbillinae [15], 0.05 mg/kg. In addition, the half-life (as a rule, the time in which the quantity being followed falls by half) in [5] was 8.8 h; in data set [11], 2.8 h. Further, the clearance (usually the rate of elimination divided by the concentration) in the data set listed under Rattus norvegicus was 33 mL/min/kg. The distribution volume (Vd) (as a rule, the apparent volume that relates the amount in the body to the concentration in plasma or blood) in data set [9] was 11 L/kg; in [10] it was 7.2 L/kg. Further, in the data set on Gerbillinae [13], the inhibition (as a rule, the share of the control response that was lost under treatment) at 3 mg/kg stood at 100%.
